Measurements from patent US6528455B1, “Phenoxy-and thiophenoxy acrylic acid compounds as herbicides” (BASF Aktiengesellschaft, priority 1999, dated 2003).

Tested on: dicotyledonous harmful plants (ABUTH, AMARE, IPOSS, SOLNI)
Experiment: Greenhouse experiment, post-emergence treatment: herbicidal action
Assay type: in vivo
Conditions: application rates of 3.9 and 1.95 g/ha of a.s., 2 to 4 weeks
Description: The test period extended over 2 to 4 weeks.

“3-(4-Chloro-2-fluoro-5-(1-methoxycarbonyl-1-vinyloxy)phenyl)-1-methyl-6-trifluoromethyl-2,4-(1H, 3H)pyrimidinedione [Example 2]” was tested, and the “herbicidal effect on dicotyledonous harmful plants compared with Comparative Example A” value was “at least as good a herbicidal effect”.
